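Each compound was tested at five concentrations against cells in 96-well plates for 48 hours. At the GI50, growth is halved.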 Calls of active or inactive are those of the source. No stated cut-off is given here; in the data, active = GI50 up to about 1.1 µM and inactive = higher.
Assays:
Assay in all cases: NCI tumour cell line growth inhibition, 48 h
A549 = test system: A549
CCRF-CEM = test system: CCRF-CEM
DMS-273 = test system: DMS-273
EKVX = test system: EKVX
HCC 2998 = test system: HCC 2998
HCT-116 = test system: HCT-116
HOP-62 = test system: HOP-62
HT-29 = test system: HT-29
NCI-H460 = test system: NCI-H460
OVCAR-8 = test system: OVCAR-8
RXF 393 = test system: RXF 393
SF-295 = test system: SF-295
SK-OV-3 = test system: SK-OV-3
SN12C = test system: SN12C
SR = test system: SR
TK-10 = test system: TK-10
UO-31 = test system: UO-31
Hs-578T = test system: Hs-578T
MDA-MB-435 = test system: MDA-MB-435
NCI/ADR-RES = test system: NCI/ADR-RES

Row | SMILES | GI50 (A549) | GI50 (CCRF-CEM) | GI50 (DMS-273) | GI50 (EKVX) | GI50 (HCC 2998) | GI50 (HCT-116) | GI50 (HOP-62) | GI50 (HT-29) | GI50 (NCI-H460) | GI50 (OVCAR-8) | GI50 (RXF 393) | GI50 (SF-295) | GI50 (SK-OV-3) | GI50 (SN12C) | GI50 (SR) | GI50 (TK-10) | GI50 (UO-31) | GI50 (Hs-578T) | GI50 (MDA-MB-435) | GI50 (NCI/ADR-RES)
1 | CCc1cccc(CC)c1NC(=O)CC1SC(N)=NC1=O (stereo not given) | > 100 µM (inactive) | > 100 µM (inactive) | > 100 µM (inactive) | > 100 µM (inactive) | > 100 µM (inactive) | > 100 µM (inactive) | > 100 µM (inactive) | > 100 µM (inactive) | > 100 µM (inactive) | > 100 µM (inactive) | > 100 µM (inactive) | > 100 µM (inactive) | > 100 µM (inactive) | > 100 µM (inactive) | 97.5 µM (inactive) | > 100 µM (inactive) | > 100 µM (inactive) |  |  | 
2 | C[C@H]1CCC2C(CN3CCCCC3)C(=O)OC2[C@]2(C)C(=O)CC(N3CCCCC3)C12O (stereo not given in full) | 28.2 µM (inactive) | 2.34 µM (inactive) | 3.57 µM (inactive) | 4 µM (inactive) | 5.87 µM (inactive) | 2.94 µM (inactive) |  | 3.9 µM (inactive) | 12.8 µM (inactive) | 1.79 µM (inactive) | 1.86 µM (inactive) | 9.1 µM (inactive) | 28.6 µM (inactive) | 3.75 µM (inactive) | 2.49 µM (inactive) | 16.6 µM (inactive) | 13.7 µM (inactive) |  |  | 
3 | CCN1CCC(O)(c2ccc(OC)cc2)C(C(=O)c2ccc(OC)cc2)C1 (stereo not given) | 18.1 µM (inactive) |  | 22.8 µM (inactive) | 30.5 µM (inactive) | 19.4 µM (inactive) | 22.8 µM (inactive) | > 100 µM (inactive) | 22 µM (inactive) | 24 µM (inactive) | 22.3 µM (inactive) |  | > 100 µM (inactive) | > 100 µM (inactive) | 20 µM (inactive) | 22.7 µM (inactive) | 3.28 µM (inactive) | 18.4 µM (inactive) |  |  | 
4 | N#CCc1nnc(N)o1 | > 100 µM (inactive) | > 100 µM (inactive) | > 100 µM (inactive) | > 100 µM (inactive) |  | > 100 µM (inactive) |  |  |  |  |  | > 100 µM (inactive) | > 100 µM (inactive) | > 100 µM (inactive) | > 100 µM (inactive) | > 100 µM (inactive) | > 100 µM (inactive) |  |  | 
5 | CN(C)CCn1c2ccccc2c2nc3cc4ccccc4cc3nc21 | 3.67 µM (inactive) | 2.88 µM (inactive) | 3.13 µM (inactive) | 12.6 µM (inactive) | 5.69 µM (inactive) | 3.79 µM (inactive) | 3.07 µM (inactive) | 0.643 µM (active) | 0.796 µM (active) | 5.9 µM (inactive) | 11 µM (inactive) | 4.05 µM (inactive) | 5.75 µM (inactive) | 4.61 µM (inactive) |  | 10.5 µM (inactive) | 5.07 µM (inactive) |  |  | 
6 | C/C(CN1C(=O)c2ccccc2C1=O)=N\NS(=O)(=O)c1ccc(F)cc1 | > 100 µM (inactive) | > 100 µM (inactive) | > 100 µM (inactive) | > 100 µM (inactive) | > 100 µM (inactive) | > 100 µM (inactive) | > 100 µM (inactive) | > 100 µM (inactive) | > 100 µM (inactive) | > 100 µM (inactive) |  | > 100 µM (inactive) | > 100 µM (inactive) | > 100 µM (inactive) | > 100 µM (inactive) | > 100 µM (inactive) | > 100 µM (inactive) |  |  | 
7 | CC(C)(C)OC1=C(OC(C)(C)C)C(O)(c2ccc(Cl)cc2)C1=O (stereo not given) | > 100 µM (inactive) | > 100 µM (inactive) | > 100 µM (inactive) | > 100 µM (inactive) | > 100 µM (inactive) |  |  | > 100 µM (inactive) | > 100 µM (inactive) | > 100 µM (inactive) | > 100 µM (inactive) | > 100 µM (inactive) | > 100 µM (inactive) | > 100 µM (inactive) | > 100 µM (inactive) | > 100 µM (inactive) | > 100 µM (inactive) |  |  | 
8 | Nc1nc(Cl)cc(NCC2(CO)COC2)n1 | > 100 µM (inactive) | > 100 µM (inactive) |  | > 100 µM (inactive) | > 100 µM (inactive) | > 100 µM (inactive) | > 100 µM (inactive) | > 100 µM (inactive) | > 100 µM (inactive) | > 100 µM (inactive) | > 100 µM (inactive) | > 100 µM (inactive) | > 100 µM (inactive) | > 100 µM (inactive) | > 100 µM (inactive) | > 100 µM (inactive) | > 100 µM (inactive) | > 100 µM (inactive) | > 100 µM (inactive) | > 100 µM (inactive)

— ChEMBL document CHEMBL1201862, “PubChem BioAssay data set” (2004)
